Test results as given in US10385065B2, “Antibacterial compounds” (priority 2014, dated 2019).
In brackets after ≈: the same amount, converted by molar mass. Where two headings read alike, the source gives them in different places.

What was measured:
S. aureus NRS1 MRSA = experiment: MIC, S. aureus NRS1; format: cell-based; settings: Staphylococcus aureus; Table 2; read-out: MIC S. aureus NRS1 MRSA AMG & TET resistant
S. aureus VRS8 = experiment: MIC, S. aureus VRS8; format: cell-based; settings: Staphylococcus aureus, MRSA, read-out: MIC S. aureus VRS8
[1] = tested on: Neisseria meningitidis ATCC 13090; experiment: MIC, N. meningitidis ATCC 13090; format: cell-based; settings: ATCC13090, Table 4, 24 h incubation
[2] = tested on: S. epidermidis NRS101 MRSE; experiment: MIC, S. epidermidis NRS101; format: cell-based; settings: Staphylococcus epidermidis; Table 2; read-out: MIC S. epidermidis NRS101 MRSE AMG, ERY resistant
[3] = tested on: S. aureus NRS107 MUP resistant; experiment: MIC, S. aureus NRS107; format: cell-based; settings: Staphylococcus aureus, Table 2
[4] = tested on: human hepatic cell line (HepG2 ATCC HB-8065); experiment: Human cell viability assay (CellTiter-Glo), HepG2; format: cell-based; settings: read-out: IC50 values against HepG2
Method in brief: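 HepG2 seeded at 20,000 cells/well, then after 24 h given two-fold serial dilutions (1-128 μg/mL, 1% DMSO) in DMEM with 0.001% FBS and 0.3% albumin. After 24 h at 37 °C, ATP luminescence (CellTiter-Glo) read; IC50 is the concentration halving viability.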

[5] = tested on: S. aureus SACPX1-SP28 (MSSA - fluoroquinolone resistant); experiment: MIC, S. aureus SACPX1-SP28; format: cell-based; settings: Staphylococcus aureus, read-out: MIC S. aureus SACPX1-SP28
S. aureus NRS271 = experiment: MIC, S. aureus NRS271; format: cell-based; settings: Staphylococcus aureus, MRSA / NRS 271, read-out: MIC S. aureus NRS271
[6] = tested on: S. aureus NRS384 (MRSA - fluoroquinolone susceptible); experiment: MIC, S. aureus NRS384; format: cell-based; settings: Staphylococcus aureus, read-out: MIC S. aureus NRS384
S. aureus NRS100 MRSA = experiment: MIC, S. aureus NRS100; format: cell-based; settings: Staphylococcus aureus; Table 2
[7] = tested on: S. aureus VRS1 MRSA VAN resistant; experiment: MIC, S. aureus VRS1; format: cell-based; settings: Staphylococcus aureus, Table 2
[8] = tested on: Legionella pneumophila ATCC 33152; experiment: microbe, parasite or virus in culture; format: cell-based; settings: ATCC33152, 48 h, read-out: MIC Legionella pneumophila ATCC 33152
[9] = tested on: Neisseria gonorrhoeae ATCC 49226; experiment: MIC, N. gonorrhoeae ATCC 49226; format: cell-based; settings: ATCC49226, Table 4, 24 h incubation
[10] = tested on: all strains of S. aureus tested; experiment: Antibacterial susceptibility, all S. aureus strains tested; format: cell-based, Staphylococcus aureus; settings: including strains resistant to fluoroquinolone and other antibiotics
[11] = tested on: Moraxella catarrhalis ATCC 25240; experiment: MIC, M. catarrhalis ATCC 25240; format: cell-based; settings: ATCC25240, Table 4
S. aureus NRS70 MRSA = experiment: MIC, S. aureus NRS70; format: cell-based; settings: Staphylococcus aureus; Table 2
[12] = tested on: Streptococcus pneumoniae ATCC BAA-255; experiment: MIC, S. pneumoniae ATCC BAA-255; format: cell-based; settings: ATCCBAA255, Table 2
S. aureus NRS74 = experiment: MIC, S. aureus NRS74; format: cell-based; settings: Staphylococcus aureus, MRSA / NRS 74, read-out: MIC S. aureus NRS74
[13] = tested on: Enterococcus faecium ATCC 19434; experiment: MIC, E. faecium ATCC 19434; format: cell-based; settings: ATCC19434, Table 2
[14] = tested on: S. aureus NRS127 MRSA LZD resistant; experiment: MIC, S. aureus NRS127; format: cell-based; settings: Staphylococcus aureus; Table 2
[15] = tested on: Mycobacterium tuberculosis H37Rv; experiment: MIC, M. tuberculosis H37Rv; format: cell-based; settings: virulent tuberculosis-causative strain
[16] = tested on: S. aureus (MRSA) ATCC 43300; experiment: MIC, S. aureus ATCC 43300; format: cell-based; settings: Staphylococcus aureus; Table 2; read-out: MIC S. aureus (MRSA) ATCC 43300 Heterogeneous MRSA strain
[17] = tested on: S. aureus NRS106 (fluoroquinolone susceptible MSSA); experiment: MIC, S. aureus NRS106; format: cell-based; settings: Staphylococcus aureus
[18] = tested on: Haemophilus influenzae ATCC 49247; experiment: MIC, H. influenzae ATCC 49247; format: cell-based; settings: ATCC49247, Table 4
[19] = tested on: Mycobacterium smegmatis ATCC 19420; experiment: MIC, M. smegmatis ATCC 19420; format: cell-based; settings: Mycolicibacterium smegmatis, ATCC19420; Table 4, 72 h incubation
[20] = tested on: S. aureus SACPX1-SP25 MSSA - FQ resistant; experiment: microbe, parasite or virus in culture; format: cell-based; settings: Staphylococcus aureus, ATCC 29213 / MSSA, read-out: MIC S. aureus SACPX1-SP25 MSSA - FQ resistant (isogenic mutant of ATCC 29213)
S. aureus NRS108 = experiment: MIC, S. aureus NRS108; format: cell-based; settings: Staphylococcus aureus, MRSA / NRS 108, read-out: MIC S. aureus NRS108
[21] = tested on: S. aureus NRS482 MRSA FQ resistant; experiment: MIC, S. aureus NRS482; format: cell-based; settings: Staphylococcus aureus; Table 2
[22] = tested on: Staphylococcus aureus ATCC 29213; experiment: MIC, broth microdilution, S. aureus ATCC 29213; format: cell-based
[23] = tested on: Escherichia coli ATCC 25922; experiment: MIC, broth microdilution, E. coli ATCC 25922; format: cell-based; settings: ATCC25922, Table 1, wild type strain
[24] = HepG2, 24 h incubation, tested over 1-128 μg/mL
[25] = ATCC29213, Table 1, wild type strain, read-out: MIC S. aureus ATCC 29213
[26] = ATCC 29213 / MSSA, Table 2, read-out: MIC S. aureus (MSSA) ATCC 29213 CLSI control strain

Cc1c(-c2cc(F)c(N)cc2F)ccc2c3ocnc3c(=O)n(C3CC3)c12 [Compound 1, 7-(4-amino-2,5-difluoro-phenyl)-5-cyclopropyl-6-methyl-oxazolo[4,5-c]quinolin-4-one]
MIC (S. aureus NRS1 MRSA): < 1 µg/mL
MIC (S. aureus VRS8): < 1 µg/mL
MIC [1]: < 1 µg/mL
MIC [2]: < 1 µg/mL
MIC [3]: < 1 µg/mL
IC50 [4, 24]: > 100 µg/mL
MIC [5]: < 1 µg/mL
MIC (S. aureus NRS271): < 1 µg/mL
MIC [6]: < 1 µg/mL
MIC (S. aureus NRS100 MRSA): < 1 µg/mL
MIC [7]: < 1 µg/mL
MIC [8]: < 1 µg/mL
MIC [9]: < 1 µg/mL
activity against all strains of S. aureus tested [10]: excellent activity
MIC [11]: < 1 µg/mL
MIC (S. aureus NRS70 MRSA): < 1 µg/mL
MIC [12]: 1 to 10 µg/mL (≈ 2.72 to 27.2 µM)
MIC (S. aureus NRS74): < 1 µg/mL
MIC [13]: > 100 µg/mL
MIC [14]: < 1 µg/mL
MIC [15]: < 8 µg/mL
MIC [16]: < 1 µg/mL
MIC [17]: < 1 µg/mL
MIC [18]: < 1 µg/mL
MIC [19]: < 1 µg/mL
MIC ([20]; Table 2): < 1 µg/mL
MIC (S. aureus NRS108): < 1 µg/mL
MIC [21]: < 1 µg/mL
MIC [22, 25]: < 1 µg/mL
MIC [22, 26]: < 1 µg/mL
MIC [23]: > 100 µg/mL

Cc1nc2c(=O)n(C3CC3)c3c(C)c(-c4ccc(CN)c(F)c4)ccc3c2o1 [Compound 36, 7-[4-(aminomethyl)-3-fluoro-phenyl]-5-cyclopropyl-2,6-dimethyl-oxazolo[4,5-c]quinolin-4-one]
MIC (S. aureus NRS1 MRSA): > 100 µg/mL
MIC [1]: < 1 µg/mL
MIC [2]: 10 to 100 µg/mL (≈ 26.5 to 265 µM)
MIC [3]: 1 to 10 µg/mL (≈ 2.65 to 26.5 µM)
IC50 [4, 24]: > 100 µg/mL
MIC (S. aureus NRS100 MRSA): 1 to 10 µg/mL (≈ 2.65 to 26.5 µM)
MIC [7]: 10 to 100 µg/mL (≈ 26.5 to 265 µM)
MIC [8]: < 1 µg/mL
MIC [9]: 10 to 100 µg/mL (≈ 26.5 to 265 µM)
MIC [11]: 1 to 10 µg/mL (≈ 2.65 to 26.5 µM)
MIC (S. aureus NRS70 MRSA): < 1 µg/mL
MIC [12]: 1 to 10 µg/mL (≈ 2.65 to 26.5 µM)
MIC [13]: 10 to 100 µg/mL (≈ 26.5 to 265 µM)
MIC [14]: 1 to 10 µg/mL (≈ 2.65 to 26.5 µM)
MIC [16]: < 1 µg/mL
MIC [18]: 1 to 10 µg/mL (≈ 2.65 to 26.5 µM)
MIC [20]: 1 to 10 µg/mL (≈ 2.65 to 26.5 µM)
MIC [21]: 1 to 10 µg/mL (≈ 2.65 to 26.5 µM)
MIC [22, 25]: < 1 µg/mL
MIC [22, 26]: < 1 µg/mL
MIC [23]: 1 to 10 µg/mL (≈ 2.65 to 26.5 µM)

Cc1c(-c2ccc3[nH]ncc3c2)ccc2c3ocnc3c(=O)n(C3CC3)c12 [Compound 39, 5-cyclopropyl-7-(1H-indazol-5-yl)-6-methyl-oxazolo[4,5-c]quinolin-4-one]
MIC (S. aureus NRS1 MRSA): < 1 µg/mL
MIC [1]: < 1 µg/mL
MIC [2]: < 1 µg/mL
MIC [3]: < 1 µg/mL
IC50 [4, 24]: 10 to 100 µg/mL (≈ 28.1 to 281 µM)
MIC (S. aureus NRS100 MRSA): < 1 µg/mL
MIC [7]: < 1 µg/mL
MIC [9]: < 1 µg/mL
MIC (S. aureus NRS70 MRSA): < 1 µg/mL
MIC [12]: < 1 µg/mL
MIC [13]: 10 to 100 µg/mL (≈ 28.1 to 281 µM)
MIC [14]: < 1 µg/mL
MIC [16]: < 1 µg/mL
MIC [18]: < 1 µg/mL
MIC [19]: 1 to 10 µg/mL (≈ 2.81 to 28.1 µM)
MIC [20]: < 1 µg/mL
MIC [21]: < 1 µg/mL
MIC [22, 25]: < 1 µg/mL
MIC [22, 26]: < 1 µg/mL
MIC [23]: 1 to 10 µg/mL (≈ 2.81 to 28.1 µM)

C[C@H]1COc2c(N3CCN(C)CC3)c(F)cc3c(=O)c(C(=O)O)cn1c23 [Levofloxacin, reference compound]
MIC (S. aureus NRS1 MRSA): 10 to 100 µg/mL (≈ 27.7 to 277 µM)
MIC [1]: < 1 µg/mL
MIC [2]: < 1 µg/mL
MIC [3]: < 1 µg/mL
IC50 [4, 24]: > 100 µg/mL
MIC (S. aureus NRS100 MRSA): < 1 µg/mL
MIC [7]: 10 to 100 µg/mL (≈ 27.7 to 277 µM)
MIC [8]: < 1 µg/mL
MIC [9]: < 1 µg/mL
MIC [11]: < 1 µg/mL
MIC (S. aureus NRS70 MRSA): < 1 µg/mL
MIC [12]: < 1 µg/mL
MIC [13]: 1 to 10 µg/mL (≈ 2.77 to 27.7 µM)
MIC [14]: > 100 µg/mL
MIC [16]: < 1 µg/mL
MIC [18]: < 1 µg/mL
MIC [20]: 1 to 10 µg/mL (≈ 2.77 to 27.7 µM)
MIC [21]: 1 to 10 µg/mL (≈ 2.77 to 27.7 µM)
MIC [22, 26]: < 1 µg/mL

CN[C@H](CC(C)C)C(=O)N[C@H]1C(=O)N[C@@H](CC(N)=O)C(=O)N[C@H]2C(=O)N[C@H]3C(=O)N[C@H](C(=O)N[C@H](C(=O)O)c4cc(O)cc(O)c4-c4cc3ccc4O)[C@H](O)c3ccc(c(Cl)c3)Oc3cc2cc(c3O[C@@H]2O[C@H](CO)[C@@H](O)[C@H](O)[C@H]2O[C@H]2C[C@](C)(N)[C@H](O)[C@H](C)O2)Oc2ccc(cc2Cl)[C@H]1O [Vancomycin, reference compound]
MIC (S. aureus NRS1 MRSA): 1 to 10 µg/mL (≈ 0.69 to 6.9 µM)
MIC [2]: 1 to 10 µg/mL (≈ 0.69 to 6.9 µM)
MIC [3]: 1 to 10 µg/mL (≈ 0.69 to 6.9 µM)
IC50 ([4]; HepG2, 24 h): 10 to 100 µg/mL (≈ 6.9 to 69 µM)
MIC (S. aureus NRS100 MRSA): 1 to 10 µg/mL (≈ 0.69 to 6.9 µM)
MIC [7]: 1 to 10 µg/mL (≈ 0.69 to 6.9 µM)
MIC (S. aureus NRS70 MRSA): < 1 µg/mL
MIC [12]: < 1 µg/mL
MIC [13]: < 1 µg/mL
MIC [14]: 1 to 10 µg/mL (≈ 0.69 to 6.9 µM)
MIC [16]: 1 to 10 µg/mL (≈ 0.69 to 6.9 µM)
MIC [18]: 10 to 100 µg/mL (≈ 6.9 to 69 µM)
MIC ([20]; Table 2): < 1 µg/mL
MIC [21]: 1 to 10 µg/mL (≈ 0.69 to 6.9 µM)
MIC [22, 26]: < 1 µg/mL
